Test results reported in patent US20030040438A1, “Method for increasing the yield of beans” (priority 2000, published 2003).

Test system: soybean seeds (Variety: Halosoy)
Assay: Test of Yield Increasing Effect on Soybeans (seed drenching)
Format: in vivo
Conditions: seeds drenched 12 hours; for Productive grain increasing index: average number of productive grains per plant in non-treated section = 100%; for Yield increasing index per plant: harvest 110 days after sowing, yield (g) in non-treated section = 100%; for One grain weight: weight per selected bean after threshing and drying, non-treated 0.22 g

CCC1(C(=O)NC(C)c2ccc(Cl)cc2)C(C)C1(Cl)Cl [Carpropamid, N-(R)-[1-(4-chloro-phenyl)-ethyl]-2,2-dichloro-1-ethyl-3t-methyl-1r-cyclopropanecarboxamide]
Productive grain increasing index (1 ppm): 127.1% | Yield increasing index per plant (1 ppm): 131.1% | One grain weight (1 ppm): 0.23 g | Productive grain increasing index (10 ppm): 163.5% | Yield increasing index per plant (10 ppm): 173.1% | One grain weight (10 ppm): 0.23 g | Productive grain increasing index (100 ppm): 163.4% | Yield increasing index per plant (100 ppm): 169.1% | One grain weight (100 ppm): 0.23 g | Productive grain increasing index (1000 ppm): 126.8% | Yield increasing index per plant (1000 ppm): 132.2% | One grain weight (1000 ppm): 0.23 g
